The text below walks through data of publication PMC8777605 (Pharmaceuticals, 2021).

The test system of one data set is SARS-CoV-2 gamma strain. The class given is in vivo, K18-hACE2 mice.
The test system of data set [1] is human platelet-poor plasma clotting. As to the kind of experiment: Plasma clotting time (fibrin formation). The following applies: three concentrations of ATV, Figure S3. As for the experimental part: Human blood samples were collected from healthy donors in 3.8% trisodium citrate (9:1, v/v), and platelet-poor plasma was obtained by centrifugation at 3000 rpm for 10 min. […] Time for clot formation was recorded in triplicates.

Data set [2] is described as follows: Pharmacokinetics in plasma and lungs after oral dosing. The class given is in vivo, Swiss–Webster mice. The following applies: mice, 60 mg/kg oral. As for the experimental part: Each treatment group had five animals. After these periods of times, total blood and lungs were collected. Plasma was obtained by blood centrifugation at 8000× g for 15 min. Time zero was obtained by analyzing the matrix pool (blood plasma) of untreated animals. The pharmacokinetic parameters of half-life (t1/2, h), time until maximum concentration is reached (tmax, h), maximum compound concentration (Cmax, ng/mL) and area under the curve (AUC, h.ng/mL) were determined. The experiments performed in this section were approved by the Committee on the Use of Laboratory Animals of the Oswaldo Cruz Foundation (CEUA-FIOCRUZ, license L003/21).

The subject of another data set is SARS-CoV-2 B.1 lineage. Description: microbe, parasite or virus in culture. The class given is cell-based.
For data set [3], the target named is T1, SARS-CoV-2 main protease (M^pro) (Severe acute respiratory syndrome coronavirus 2, UniProt P0DTD1).
T1 construct: purchased BPS Bioscience #79955-1
As to the kind of experiment: biochemical. As for the experimental part: (§1) Fluorescence signal was measured at an emission wavelength of 460 nm with excitation at 360 nm in a GloMax® (Promega, Madison, WI, USA) plate reader. Morrison’s inhibitory constant (Ki) was calculated by non-linear regression using GraphPad Prism 9. […] After fluorescence quantification, the Michaelis–Menten constant (Km) and maximum velocity (Vmax) were calculated by non-linear regression using GraphPad Prism 9. The value was presented as mean ± standard deviation (SD).

Data set [4] concerns SARS-CoV-2 gamma strain (P1, B.1.1.28). Description: microbe, parasite or virus in culture. The following applies: Severe acute respiratory syndrome coronavirus 2, Calu-3, 48 h.
A further data set can be described thus: Cytotoxic assay. The data set is classed as cell-based. The following applies: African green monkey, table title says Calu-3 cells, method says Vero cells. The method, then: All experiments were carried out at least three independent times and each data was analyzed from Prism GraphPad software 8.0 (Windows GraphPad Software, San Diego, CA, USA). The results were presented as mean ± standard deviation (SD).

Data set [5] addresses T2, SARS-CoV-2 papain-like protease (PL^pro) (Severe acute respiratory syndrome coronavirus 2, UniProt P0DTD1).
T2 construct: purchased BPS Bioscience #79995-1
As to the kind of experiment: SARS-CoV-2 PL^pro enzymatic assay (BPS Bioscience kit). The data set is classed as biochemical. The method, then:
as §1

The subject of data set [6] is SARS-CoV-2 gamma strain (P1, B.1.1.28).

“Also recorded” adds a separate entry of the source. Like-named read-outs stand apart in the source and are kept apart here.

For `COC(=O)N[C@H](C(=O)N[C@@H](Cc1ccccc1)[C@@H](O)CN(Cc1ccc(-c2ccccn2)cc1)NC(=O)[C@@H](NC(=O)OC)C(C)(C)C)C(C)(C)C` [ATV, atazanavir], in the data set on SARS-CoV-2 gamma strain (60 mg/kg oral daily), the “Body weight, treated versus untreated infected mice” value is recorded as “not a statical difference”; the “Lung injury (hemorrhage, shrinking of lobe, bronchiole and alveoli), histology” value is “reduced”; the “SARS-CoV-2-induced IL-6 levels in the BAL and in the lungs” value is given as “reduced”. Besides, in the data set with SARS-CoV-2 gamma strain (60 mg/kg oral daily, compared to untreated mice), the “Levels of IL-6, TNF-a, KC and PF4 in the BAL” value is given as “lower levels”. In addition, in the data set with SARS-CoV-2 gamma strain (mouse, in vivo), the “Animal survival (in words)” value is “statistically significant increase”; the “Cell death (LDH activity) in BAL” value is given as “significantly decreased”; the Enhancement of survival amounted to 30%; the “Polymorphonuclear and mononuclear cell counts in BAL” value is recorded as “significantly decreased”. Moreover, the “SARS-CoV-2 RNA levels in BAL” value in the data set on SARS-CoV-2 gamma strain (mouse, in vivo) is given as “significantly decreased”. The Anti-clotting activity entry in data set [1] is “could not prevent hemorrhage as an anti-clotting agent”. In addition, in data set [2] (Swiss-Webster, mouse, plasma), the AUC (as a rule, the area under the concentration-time curve, a measure of exposure) turned out to be 14300 ng·h/mL; the peak level (Cmax) was 7430 ng/mL; the Tmax – broadly, the time from dosing to the highest level – worked out at 1 h; the half-life (in general, how long it takes for the measured level to halve) was 9.9 h. Moreover, in data set [2] (AUC lung versus plasma), the “Distribution to the lung” value is “concentrated in the lung”. In addition, a half-maximal response in the data set on SARS-CoV-2 B.1 lineage (EC50) required 0.321 ± 0.016 µM. Moreover, in the data set with SARS-CoV-2 B.1 lineage (Severe acute respiratory syndrome coronavirus 2, Calu-3, 48 h), the response was half-maximal at 0.49 ± 0.02 µM (EC50). Further, in data set [3], the Ki (as a rule, the equilibrium dissociation constant of an inhibitor or competing ligand from its target) came out at 0.703 ± 0.079 µM. For the same compound, the “Increase of M^pro's Km by the inhibitor” value in [3] (2.5 μM ATV versus absence) is on record as “more than sixfold”. Moreover, the “Inhibition profile (mechanism)” value in data set [3] (Vmax not different, Km increased) is “competitive inhibition profile”. Besides, the “Maximum velocity (Vmax) of M^pro” value in data set [3] (in the presence of 2.5 μM ATV, substrate 0–100 μM) worked out at 24.94 ± 3.70 µM/min. The EC50 (commonly the concentration that produces a half-maximal response) in [4] turned out to be 0.399 ± 0.02 µM. In the data set “Cytotoxic assay”, the CC50 (as a rule, the concentration that lowers cell viability or growth by half) at 3 days turned out to be 312 ± 8 µM. In addition, in data set [5] (0–10 μM), the “Inhibition of PL^pro (in words)” value is on record as “did not inhibit; also recorded: above the threshold of in vitro inhibition”. Moreover, in data set [5] (100 nM PL^pro, 25 μM substrate, 45–60 min, 0–10 μM inhibitor, read-out: Morrison's inhibitory constant (Ki)), the Ki was 9.87 µM.

Regarding `CCC(CC)COC(=O)[C@H](C)N[P@](=O)(OC[C@H]1O[C@@](C#N)(c2ccc3c(N)ncnn23)[C@H](O)[C@@H]1O)Oc1ccccc1` [RDV, remdesivir], in data set [6], the “SI (CC50/EC50)” value was 4530. The compound further showed an EC50 in [4] of 0.113 ± 0.01 µM. The same compound displayed a CC50 at 3 days in the data set “Cytotoxic assay” of 512 ± 30 µM.
